Source: US11053204B2, “Pyrimidinyloxy benzene derivatives as herbicides” (FMC Corporation, priority 2015, dated 2021)

What was measured:
Format in all cases: in vivo
[1] = system: foxtail, giant (giant foxtail, Setaria faberii); test: Test C postemergence, plant response rating; conditions: for Foxtail, Giant plant response rating: scale 0 to 100 (0 no effect, 100 complete control)
In short: (§1)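 Greenhouse plants rated visually against untreated controls 13–15 d after treatment, scale 0 = no effect to 100 = complete control. Postemergence sprays went onto potted plants 2–18 cm tall (1–4 leaves); preemergence sprays onto soil freshly sown in loam–sand or silt loam, chemicals formulated in non-phytotoxic solvent with surfactant.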

soybean (Glycine max) [2] = test: Test C postemergence, plant response rating; conditions: for Soybean plant response rating: scale 0 to 100 (0 no effect, 100 complete control)
In short: as §1

[3] = system: waterhemp (common waterhemp, Amaranthus rudis); test: Test C postemergence, plant response rating
In short: as §1

corn (Zea mays) [4] = test: Test C postemergence, plant response rating; conditions: for Corn plant response rating: scale 0 to 100 (0 no effect, 100 complete control)
In short: as §1

[5] = system: oilseed rape (Brassica napus); test: Test C postemergence, plant response rating; conditions: for Oilseed Rape plant response rating: scale 0 to 100 (0 no effect, 100 complete control)
In short: as §1

[6] = system: crabgrass, large (large crabgrass, Digitaria sanguinalis); test: Test C postemergence, plant response rating; conditions: for Crabgrass, Large plant response rating: scale 0 to 100 (0 no effect, 100 complete control)
In short: as §1

[7] = system: galium (catchweed bedstraw, Galium aparine); test: Test C postemergence, plant response rating; conditions: for Galium plant response rating: scale 0 to 100 (0 no effect, 100 complete control)
In short: as §1

kochia (Kochia scoparia) = test: Test C postemergence, plant response rating; conditions: for Kochia plant response rating: scale 0 to 100 (0 no effect, 100 complete control)
In short: as §1

[8] = system: foxtail, giant (giant foxtail, Setaria faberii); test: Test C preemergence, plant response rating; conditions: Preemergence
In short: as §1

soybean (Glycine max) [9] = test: Test C preemergence, plant response rating; conditions: Preemergence
In short: as §1

[10] = system: waterhemp (common waterhemp, Amaranthus rudis); test: Test C preemergence, plant response rating; conditions: Preemergence
In short: as §1

[11] = system: ryegrass, Italian (Italian ryegrass, Lolium multiflorum); test: Test C preemergence, plant response rating; conditions: Preemergence
In short: as §1

corn (Zea mays) [12] = test: Test C preemergence, plant response rating; conditions: Preemergence
In short: as §1

[13] = system: oilseed rape (Brassica napus); test: Test C preemergence, plant response rating; conditions: Preemergence
In short: as §1

[14] = system: crabgrass, large (large crabgrass, Digitaria sanguinalis); test: Test C preemergence, plant response rating; conditions: Preemergence
In short: as §1

[15] = system: blackgrass (Alopecurus myosuroides); test: Test C preemergence, plant response rating; conditions: Preemergence
In short: as §1

[16] = system: wheat (winter wheat, Triticum aestivum); test: Test C preemergence, plant response rating; conditions: Preemergence
In short: as §1

[17] = system: nutsedge, yellow (yellow nutsedge, Cyperus esculentus); test: Test C preemergence, plant response rating; conditions: Preemergence
In short: as §1

[18] = system: velvetleaf (Abutilon theophrasti); test: Test C preemergence, plant response rating; conditions: Preemergence
In short: as §1

[19] = system: lambsquarters (Chenopodium album); test: Test C preemergence, plant response rating; conditions: Preemergence
In short: as §1

[20] = system: morningglory (Ipomoea coccinea); test: Test C preemergence, plant response rating; conditions: Preemergence
In short: as §1

## O=C(CCCCC(F)(F)F)c1c(Br)cccc1Oc1ncc(Cl)cn1 [Compound 82]
[1]; 16 g ai/ha, scale of 0 to 100
  Plant response rating, Foxtail, Giant: 10
[1]; 31 g ai/ha, scale 0 to 100
  Plant response rating, Foxtail, Giant: 10
[1]; 62 g ai/ha
  Foxtail, Giant plant response rating: 10
[1]; 125 g ai/ha
  Foxtail, Giant plant response rating: 20
Soybean (Glycine max) [2]; 16 g ai/ha, scale of 0 to 100
  Plant response rating, Soybean: 25
Soybean (Glycine max) [2]; 31 g ai/ha, scale 0 to 100
  Plant response rating, Soybean: 60
Soybean (Glycine max) [2]; 62 g ai/ha
  Soybean plant response rating: 35
Soybean (Glycine max) [2]; 125 g ai/ha
  Soybean plant response rating: 40
[3]; 16 g ai/ha, scale of 0 to 100
  Plant response rating, Waterhemp: 65
[3]; 31 g ai/ha, scale 0 to 100
  Plant response rating, Waterhemp: 95
[3]; 125 g ai/ha, scale 0 to 100 (0 no effect, 100 complete control)
  Waterhemp plant response rating: 95
Corn (Zea mays) [4]; 16 g ai/ha, scale of 0 to 100
  Plant response rating, Corn: 20
Corn (Zea mays) [4]; 31 g ai/ha, scale 0 to 100
  Plant response rating, Corn: 20
Corn (Zea mays) [4]; 62 g ai/ha
  Corn plant response rating: 25
Corn (Zea mays) [4]; 125 g ai/ha
  Corn plant response rating: 25
[5]; 16 g ai/ha, scale of 0 to 100
  Plant response rating, Oilseed Rape: 70
[5]; 31 g ai/ha, scale 0 to 100
  Plant response rating, Oilseed Rape: 95
[5]; 62 g ai/ha
  Oilseed Rape plant response rating: 95
[5]; 125 g ai/ha
  Oilseed Rape plant response rating: 95
[6]; 16 g ai/ha, scale of 0 to 100
  Plant response rating, Crabgrass, Large: 10
[6]; 31 g ai/ha, scale 0 to 100
  Plant response rating, Crabgrass, Large: 30
[6]; 62 g ai/ha
  Crabgrass, Large plant response rating: 30
[6]; 125 g ai/ha
  Crabgrass, Large plant response rating: 20
[7]; 16 g ai/ha, scale of 0 to 100
  Plant response rating, Galium: 50
[7]; 31 g ai/ha, scale 0 to 100
  Plant response rating, Galium: 75
[7]; 62 g ai/ha
  Galium plant response rating: 85
[7]; 125 g ai/ha
  Galium plant response rating: 90
Kochia (Kochia scoparia); 16 g ai/ha, scale of 0 to 100
  Plant response rating, Kochia: 80
Kochia (Kochia scoparia); 31 g ai/ha, scale 0 to 100
  Plant response rating, Kochia: 95
Kochia (Kochia scoparia); 62 g ai/ha
  Kochia plant response rating: 95
Kochia (Kochia scoparia); 125 g ai/ha
  Kochia plant response rating: 95
[8]; 125 g ai/ha, scale of 0 to 100
  Plant response rating, Foxtail, Giant: 98
[8]; 31 g ai/ha, scale 0 to 100
  Plant response rating, Foxtail, Giant: 80
[8]; 62 g ai/ha, scale 0 to 100
  Plant response rating, Foxtail, Giant: 90
Soybean (Glycine max) [9]; 125 g ai/ha, scale of 0 to 100
  Plant response rating, Soybean: 0
Soybean (Glycine max) [9]; 31 g ai/ha, scale 0 to 100
  Plant response rating, Soybean: 0
Soybean (Glycine max) [9]; 62 g ai/ha, scale 0 to 100
  Plant response rating, Soybean: 0
[10]; 125 g ai/ha, scale of 0 to 100
  Plant response rating, Waterhemp: 100
[10]; 31 g ai/ha, scale 0 to 100
  Plant response rating, Waterhemp: 50
[10]; 62 g ai/ha, scale 0 to 100
  Plant response rating, Waterhemp: 100
[11]; 125 g ai/ha, scale of 0 to 100
  Plant response rating, Ryegrass, Italian: 5
[11]; 31 g ai/ha, scale 0 to 100
  Plant response rating, Ryegrass, Italian: 0
[11]; 62 g ai/ha, scale 0 to 100
  Plant response rating, Ryegrass, Italian: 5
Corn (Zea mays) [12]; 125 g ai/ha, scale of 0 to 100
  Plant response rating, Corn: 5
Corn (Zea mays) [12]; 16 g ai/ha, scale 0 to 100
  Plant response rating, Corn: 0
Corn (Zea mays) [12]; 31 g ai/ha, scale 0 to 100
  Plant response rating, Corn: 0
Corn (Zea mays) [12]; 62 g ai/ha, scale 0 to 100
  Plant response rating, Corn: 0
[13]; 125 g ai/ha, scale of 0 to 100
  Plant response rating, Oilseed Rape: 50
[13]; 31 g ai/ha, scale 0 to 100
  Plant response rating, Oilseed Rape: 0
[13]; 62 g ai/ha, scale 0 to 100
  Plant response rating, Oilseed Rape: 5
[14]; 125 g ai/ha, scale of 0 to 100
  Plant response rating, Crabgrass, Large: 98
[14]; 16 g ai/ha, scale 0 to 100
  Plant response rating, Crabgrass, Large: 60
[14]; 31 g ai/ha, scale 0 to 100
  Plant response rating, Crabgrass, Large: 70
[14]; 62 g ai/ha, scale 0 to 100
  Plant response rating, Crabgrass, Large: 90
[15]; 125 g ai/ha, scale of 0 to 100
  Plant response rating, Blackgrass: 5
[15]; 16 g ai/ha, scale 0 to 100
  Plant response rating, Blackgrass: 0
[15]; 31 g ai/ha, scale 0 to 100
  Plant response rating, Blackgrass: 0
[15]; 62 g ai/ha, scale 0 to 100
  Plant response rating, Blackgrass: 5
[16]; 125 g ai/ha, scale of 0 to 100
  Plant response rating, Wheat: 0
[16]; 31 g ai/ha, scale 0 to 100
  Plant response rating, Wheat: 0
[16]; 62 g ai/ha, scale 0 to 100
  Plant response rating, Wheat: 0
[17]; 125 g ai/ha, scale of 0 to 100
  Plant response rating, Nutsedge, Yellow: 0
[17]; 31 g ai/ha, scale 0 to 100
  Plant response rating, Nutsedge, Yellow: 0
[17]; 62 g ai/ha, scale 0 to 100
  Plant response rating, Nutsedge, Yellow: 0
[18]; 125 g ai/ha, scale of 0 to 100
  Plant response rating, Velvetleaf: 10
[18]; 31 g ai/ha, scale 0 to 100
  Plant response rating, Velvetleaf: 0
[18]; 62 g ai/ha, scale 0 to 100
  Plant response rating, Velvetleaf: 0
[19]; 125 g ai/ha, scale of 0 to 100
  Plant response rating, Lambsquarters: 70
[19]; 31 g ai/ha, scale 0 to 100
  Plant response rating, Lambsquarters: 20
[19]; 62 g ai/ha, scale 0 to 100
  Plant response rating, Lambsquarters: 20
[20]; 125 g ai/ha, scale of 0 to 100
  Plant response rating, Morningglory: 10
[20]; 31 g ai/ha, scale 0 to 100
  Plant response rating, Morningglory: 0
[20]; 62 g ai/ha, scale 0 to 100
  Plant response rating, Morningglory: 0
